Key:
Goto-Kakizaki (GK) rats = test: Test Example 2: blood glucose lowering rate 4 hours after oral Compound A in fasted and non-fasted rats; type: in vivo, rat; conditions: 30 mg/kg oral
Experimental: Thirty-six-week old Goto-Kakizaki (GK) rats (purchased from Charles River Japan, Inc.), that spontaneously developed diabetes mellitus, were grouped into 4 groups such as “non-fasting control group”, “non-fasting and Compound A administered group”, “fasting control group”, and “fasting and Compound A administered group” (6 rats per group).
In Compound A administered groups, Compound A (30 mg/kg) was orally administered, and vehicle alone was administered to two control groups. In addition, rats in two fasting groups were fasted from one day before oral administration of Compound A, and rats in two non-fasting groups were fasted immediately after Compound A was administered [the rats were allowed to take food pellets (FR2, manufactured by Funabashi Farm Co., Ltd.) ad libitum until fasting was started]. Blood sample was collected from the tail vein immediately before and 4 hours after oral administration of Compound A. Blood glucose level was determined by electric potential measurement method based on glucose oxidase immobilized electrode using Glucoloader GXT (A&T Corp.). The blood glucose lowering rate (%) at 4 hours after administration of Compound A against the blood glucose level before administration was calculated in individual rats according to the following equation, and the average blood glucose lowering rate and its standard error in each group are summarized in FIG. 2. [Blood glucose lowering rate(%)]=100×([…])/[blood glucose level before administration]

[1] = test system: Zucker diabetic fatty (ZDF) rats; test: Test Example 1: glycosylated hemoglobin ratio after 6 weeks of repeated, timed administration of Compound A and metformin; type: in vivo, rat; conditions: for glycosylated hemoglobin ratio vs control group: 100-150 mg/kg each once daily
Experimental: Eleven-week old Zucker diabetic fatty (ZDF) rats, that spontaneously developed diabetes mellitus, were grouped into 3 groups (7 rats per group). Feeding was limited to from 17:00 to 9:00, and Compound A and metformin (purchased from Sigma Chemical Co., Ltd.) were repeatedly administered for 6 weeks. Doses of Compound A and metformin were 100-150 mg/kg each once daily, and administered at 9:00 AM (9:00) or 4:00 PM (16:00). In the group administered Compound A at 9:00 AM, metformin was administered at 4:00 PM (AM-Compound A/PM-metformin administered group; Group A), and in the group administered metformin at 9:00 AM, Compound-A was administered at 4:00 PM (AM-metformin/PM-Compound A administered group; Group B). The dose of each compound per day in both groups was fixed at the same. Vehicle alone was administered to the remaining group (control group) twice a day. After repeated administration of the compounds for 6 weeks, blood sample was collected from the tail vein of each rat, and ratios of glycosylated hemoglobin levels in erythrocytes were determined by DCA2000 manufactured by Bayer Medical Ltd. Glycosylated hemoglobin is non-enzymatically formed by binding of glucose to hemoglobin, and the ratio of glycosylated hemoglobin is increased by sustained hyperglycemia. Thus the glycosylated hemoglobin ratio is widely used as an indicator of a long-term therapy (or control of blood glucose levels) in patients with diabetes mellitus. The average and standard error of the glycosylated hemoglobin ratio determined in each group were calculated and are shown in FIG. 1.

## CCOC(=O)[C@H](C)NP(=O)(N[C@@H](C)C(=O)OCC)c1ccc(-c2nc(N)sc2CC(C)C)o1 [Compound A, 2-amino-5-isobutyl-4-{2-[5-(N,N′-bis((S)-1-ethoxycarbonyl)ethyl)phosphonamido]furanyl}thiazole]
Goto-Kakizaki (GK) rats; GK rats fasted from one day before dosing, p=0.0236, t-test
  blood glucose lowering rate at 4 hours after administration vs corresponding control group: significantly reduced
Goto-Kakizaki (GK) rats; GK rats, both groups given Compound A, p=0.0158, t-test
  blood glucose lowering rate at 4 hours, fasting group vs non-fasting group: significantly lower
Goto-Kakizaki (GK) rats; non-fasting GK rats, p=0.0196, t-test
  blood glucose lowering rate at 4 hours after administration vs corresponding control group: significantly reduced
[1]; AM-metformin/PM-Compound A compared with AM-Compound A/PM-metformin, same daily doses, p=0.0330, Tukey test
  glycosylated hemoglobin ratio, Group B vs Group A: improved diabetes mellitus more remarkably
[1]; Group A: Compound A at 9:00 AM, metformin at 4:00 PM, p=0.0749, Tukey test
  glycosylated hemoglobin ratio vs control group: not significantly different from that in the control group
[1]; Group B: metformin at 9:00 AM, Compound A at 4:00 PM, p=0.0002, Tukey test
  glycosylated hemoglobin ratio vs control group: significantly lower than that in the control group

Source: patent publication US20070259928A1, “Medicinal Composition for Treating Diabetes” (priority 2004, published 2007)
